The source of these data is US20230105212A1, “BIPHENYL DERIVATIVE INHIBITOR, PREPARATION METHOD THEREFOR AND USE THEREOF” (SHANGHAI HANSOH BIOMEDICAL CO., LTD., priority 2020, published 2023).

Assay [1] concerns the target T1, PD-L1 protein on the surface of MC38-hPDL1 tumor cells (Homo sapiens, UniProt Q9NZQ7).
T1 construct: expressed in transfected cells; host or cells: MC38-hPDL1 (mouse colon cancer cells)
The experiment in a line: Induction of endocytosis of PD-L1 on the surface of tumor cells (flow cytometry). The format is cell-based. The following applies: 16 hours incubation; for Emax: MC38-hPDL1 cells, read-out: MC38 maximum endocytosis rate; for IC50: inducing endocytosis of PD-L1, MC38-hPDL1 cells, read-out: MC38 IC50. An excerpt: Test Embodiment 2. Test of the Activity of Compounds of the Present Disclosure on Inducing the Endocytosis of PD-L1 Protein on the Surface of Tumor Cells
Experimental purpose: The purpose of this test embodiment was to test the activity of the compound on inducing the endocytosis of PD-L1 on the surface of tumor cells.
Experimental method: In order to test the activity of the compound on inducing the endocytosis of PD-L1, in this experiment, the activity of the compound on inducing the endocytosis of PD-L1 was tested by detecting the change degree of PD-L1 on the tumor cell surface with fluorescently labeled anti-PD-L1 antibody, and the IC50 of activity of the compound on inducing the endocytosis of PD-L1 was obtained.
The mouse colon cancer cells MC38-hPDL1 with high expression of hPD-L1 were collected, and adjusted to a suitable density and plated in a 24-well plate, and placed in a 37° C., 5% CO2 incubator to adhere overnight. Compounds were prepared into different concentrations by medium and added to a 24-well plate, and a vehicle control well was set up. After the cells were incubated in a 37° C., 5% CO2 incubator for 16 hours, the 24-well plate was taken out, and MC38-hPDL1 cells with different treatments in the plate were collected. After the cells were washed once with FACS buffer (PBS containing 0.5% BSA), and the cells were prepared to an appropriate density with FACS buffer. PE Mouse Anti-Human CD274 antibody (BD Pharmingen #557924) was added, and the cells were shaken at room temperature and incubated for 30 minutes without light, then the cells were washed twice with FACS buffer, resuspended in 100 μL of PBS, and a flow cytometer was used to detect the fluorescent signal on the cell surface, and the isotype control was set as a negative control.
The endocytosis rate of the compounds was calculated from the fluorescence signals of different treatment groups, and the compound concentration and endocytosis rate were fitted by nonlinear regression using GraphPad Prism software, and IC50 values were obtained, as shown in Table 2.

For the next assay, the target named is T2, human PD-1/PD-L1 binding (Homo sapiens, UniProt Q9NZQ7).
T2 construct: PD-L1-His protein (19 to 238 amino acids) (Abcam #ab167713); purchased Abcam (PD-L1-His); R&D (PD-1-Fc) ab167713; 1086-PD
T2 sequence (Q9NZQ7 19-238): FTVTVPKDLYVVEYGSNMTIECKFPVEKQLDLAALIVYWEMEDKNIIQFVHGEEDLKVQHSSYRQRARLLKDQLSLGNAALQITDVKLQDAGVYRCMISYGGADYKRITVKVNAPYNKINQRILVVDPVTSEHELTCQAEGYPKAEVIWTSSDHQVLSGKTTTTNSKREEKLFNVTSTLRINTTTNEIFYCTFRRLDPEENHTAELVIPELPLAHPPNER
As to the kind of experiment: Inhibition of human PD-1/PD-L1 binding (TR-FRET/HTRF). As to conditions: TR-FRET, PD-L1-His and PD-1-Fc; read-out: PD-1/PD-L1 binding IC50. An excerpt: Test Embodiment 1: Test of Inhibitory Effect of the Compounds of the Present Disclosure on Human PD-1/PD-L1 Binding
Experimental purpose: The purpose of this test embodiment was to measure the inhibitory activity of the compounds on human PD-1/PD-L1 binding.
Experimental reagents: Binding Domain diluent buffer was purchased from Cisbio Company, Cat. No.: 62DLBDDF; MAb Anti-6HIS Eu cryptate Gold was purchased from Cisbio Company with the article number of 61HI2KLA; PAb Anti Human IgG-XL665 was purchased from Cisbio Company with the article number of 61HFCXLB; PD-L1-His protein was purchased from Abcam Company with the article number of ab167713; PD-1-Fc protein was purchased from R&D Company with the article number of 1086-PD; Detection buffer was purchased from Cisbio Company with the article number of 62SDBRDD; 384-well plate was purchased from PerkinElmer Company with the article number of 6007290.
Experimental method: In order to test the inhibitory activity of the compounds on human PD-1/PD-L1 binding, the method of time-resolved fluorescence resonance energy transfer (TR-FRET) was used in this experiment to test the inhibition of the compounds on human PD-1/PD-L1 binding, and the half inhibitory concentration IC50 of inhibitory activity of the compounds on human PD-1/PD-L1 binding was obtained.
This experiment was performed in a 384-well plate with a total reaction volume of 20 μL. Compounds were diluted to different concentrations (10 μM or 1 μM starting, 3-fold dilution, 11 doses) using assay buffer Binding Domain diluent buffer (Cisbio #62DLBDDF), then PD-L1-His protein (19 to 238 amino acids) (Abcam #ab167713) was diluted to 10 nM with assay buffer, and PD-1-Fc protein (25 to 167 amino acids) (R&D #1086-PD) was diluted to 20 nM with assay buffer; the compound, PD-L1 protein and PD-1 protein were added to a 384-well plate respectively, and the total volume was 10 μL, then centrifuged at 1000 rpm for 1 minute to mix well, and incubated for 60 minutes at room temperature. Then 10 μL of a mixed solution of MAb Anti-6HIS Eu cryptate Gold (Cisbio #61HI2KLA) and PAb Anti Human IgG-XL665 (Cisbio #61HFCXLB) diluted by HTRF Detection buffer was added to each well, and centrifuged at 1000 rpm for 1 minute to mix well. The reaction was carried out at room temperature for 3 hours or at 4° C. overnight, then a microplate reader (BioTek Synergy H1) was put into for reading; the excitation wavelength was 340 nm, and the emission wavelengths were 620 nm and 665 nm.
The ratio of fluorescence readings at 620 nm and 665 nm (665 nm/620 nm) was calculated, and the inhibition rate was calculated.
On the technique in general: In TR-FRET formats the signal depends on donor and acceptor labels being close together.

T1 sequence (Q9NZQ7 19-290): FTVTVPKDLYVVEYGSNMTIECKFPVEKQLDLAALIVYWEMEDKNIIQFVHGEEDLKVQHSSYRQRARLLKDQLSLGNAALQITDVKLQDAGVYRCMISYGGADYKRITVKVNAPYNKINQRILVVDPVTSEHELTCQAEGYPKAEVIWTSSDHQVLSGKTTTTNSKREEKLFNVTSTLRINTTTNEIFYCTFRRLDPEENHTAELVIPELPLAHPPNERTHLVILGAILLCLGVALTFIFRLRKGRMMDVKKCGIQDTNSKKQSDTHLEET

For `COc1ccnc(NCc2cnc(C(=O)Nc3cccc(-c4cccc(NC(=O)c5nc6c(n5C)CCN(C)C6)c4Cl)c3C)cc2OC)c1` [Embodiment 12, N-(2-Chloro-3′-(4-methoxy-5-(((4-methoxypyridin-2-yl)amino)methyl)picolinamido)-2′-methyl-[1,1′-biphenyl]-3-yl)-1,5-dimethyl-4,5,6,7-tetrahydro-1H-imidazo[4,5-c]pyridine-2-carboxamide], in assay [1], the Emax turned out to be 84% and the IC50 is 6.5 nM.

For `COc1cc(C(=O)Nc2cccc(-c3cccc(NC(=O)c4nc5c(n4C)CCN(C)C5)c3Cl)c2C)ncc1CNCc1ncccc1OC` [Embodiment 13, N-(2-Chloro-3′-(4-methoxy-5-((((3-methoxypyridin-2-yl)methyl)amino)methyl)picolinamido)-2′-methyl-[1,1′-biphenyl]-3-yl)-1,5-dimethyl-4,5,6,7-tetrahydro-1H-imidazo[4,5-c]pyridine-2-carboxamide], in assay [1], the Emax was 87% and the IC50 was determined as 6.6 nM.

Take `COc1cc(C(=O)Nc2cccc(-c3cccc(NC(=O)c4nc5c(n4C)CCN(C)C5)c3Cl)c2C)ncc1CNCC1(F)CCOCC1` [Embodiment 19, N-(2-Chloro-3′-(5-((((4-fluorotetrahydro-2H-pyran-4-yl)methyl)amino)methyl)-4-methoxypicolinamido)-2′-methyl-[1,1′-biphenyl]-3-yl)-1,5-dimethyl-4,5,6,7-tetrahydro-1H-imidazo[4,5-c]pyridine-2-carboxamide]: in assay [1], the Emax turned out to be 85% and the IC50 came out at 7 nM.

`COc1cc(C(=O)Nc2cccc(-c3cccc(NC(=O)c4nc5c(n4C)CCN(C)C5)c3Cl)c2C)ncc1CN1CC[C@@H](F)C1` [Embodiment 25, (R)—N-(2-Chloro-3′-(5-((3-fluoropyrrolidin-1-yl)methyl)-4-methoxypicolinamido)-2′-methyl-[1,1′-biphenyl]-3-yl)-1,5-dimethyl-4,5,6,7-tetrahydro-1H-imidazo[4,5-c]pyridine-2-carboxamide]: in assay [1], the Emax came out at 95% and the IC50 was found to be 0.9 nM.

With `COc1nc(C(=O)Nc2cccc(-c3cccc(NC(=O)c4nc5c(n4C)CCN(C)C5)c3Cl)c2C)ccc1CN[C@@H](C)CO` [Embodiment 43, (S)—N-(2-Chloro-3′-(5-(((1-hydroxypropan-2-yl)amino)methyl)-6-methoxypicolinamido)-2′-methyl-[1,1′-biphenyl]-3-yl)-1,5-dimethyl-4,5,6,7-tetrahydro-1H-imidazo[4,5-c]pyridine-2-carboxamide], the IC50 on human PD-1/PD-L1 binding came out at 4.1 nM.

Turning to `COc1cc(NCc2cnc(C(=O)Nc3cccc(-c4cccc(NC(=O)c5nc6c(n5C)CCN(C)C6)c4Cl)c3C)cc2C2CC2)ccn1` [Embodiment 44, N-(2-Chloro-3′-(4-cyclopropyl-5-(((2-methoxypyridin-4-yl)amino)methyl)picolinamido)-2′-methyl-[1,1′-biphenyl]-3-yl)-1,5-dimethyl-4,5,6,7-tetrahydro-1H-imidazo[4,5-c]pyridine-2-carboxamide], in assay [1], the Emax was determined as 88% and the IC50 was determined as 4.2 nM.

Turning to `COc1cc(C(=O)Nc2cccc(-c3cccc(NC(=O)c4nc5c(n4C)CCN(C)C5)c3Cl)c2C)ncc1C(C)(C)O` [Embodiment 50, N-(2-Chloro-3′-(5-(2-hydroxypropan-2-yl)-4-methoxypicolinamido)-2′-methyl-[1,1′-biphenyl]-3-yl)-1,5-dimethyl-4,5,6,7-tetrahydro-1H-imidazo[4,5-c]pyridine-2-carboxamide], the IC50 at human PD-1/PD-L1 binding stood at 9 nM.

On to `COc1cc(-c2cccc(-c3cccc(NC(=O)c4nc5c(n4C)CCN(C)C5)c3Cl)c2Cl)ncc1CNC1CCOCC1` [Embodiment 57, N-(2,2′-Dichloro-3′-(4-methoxy-5-(((tetrahydro-2H-pyran-4-yl)amino)methyl)pyridin-2-yl)-[1,1′-biphenyl]-3-yl)-1,5-dimethyl-4,5,6,7-tetrahydro-1H-imidazo[4,5-c]pyridine-2-carboxamide], for which the IC50 on human PD-1/PD-L1 binding is 3 nM.

Regarding `COc1cc(-c2cccc(-c3cccc(NC(=O)c4nc5c(n4C)CCN(C)C5)c3Cl)c2C)ncc1CN1CC[C@@H](F)C1` [Embodiment 60, (R)—N-(2-Chloro-3′-(5-((3-fluoropyrrolidin-1-yl)methyl)-4-methoxypyridin-2-yl)-2′-methyl-[1,1′-biphenyl]-3-yl)-1,5-dimethyl-4,5,6,7-tetrahydro-1H-imidazo[4,5-c]pyridine-2-carboxamide], the IC50 on human PD-1/PD-L1 binding is 6.9 nM.

For the compound `COc1cc(NCc2cnc(C(=O)Nc3cccc(-c4cccc(NC(=O)c5nc6c(n5C)CCN(C(C)C)C6)c4Cl)c3C)cc2OC)ccn1` [Embodiment 70, N-(2-Chloro-3′-(4-methoxy-5-(((2-methoxypyridin-4-yl)amino)methyl)picolinamido)-2′-methyl-[1,1′-biphenyl]-3-yl)-5-isopropyl-1-methyl-4,5,6,7-tetrahydro-1H-imidazo[4,5-c]pyridine-2-carboxamide], in assay [1], the Emax was determined as 81% and the IC50 was 4 nM.

As for `COc1cc(NCc2cnc(C(=O)Nc3cccc(-c4cccc(NC(=O)c5nc6c(n5C)CCN(CC5CC5)C6)c4Cl)c3Cl)cc2OC)ccn1` [Embodiment 83, 5-(Cyclopropylmethyl)-N-(2,2′-dichloro-3′-(4-methoxy-5-(((2-methoxypyridin-4-yl)amino)methyl)picolinamido)-[1,1′-biphenyl]-3-yl)-1-methyl-4,5,6,7-tetrahydro-1H-imidazo[4,5-c]pyridine-2-carboxamide], the IC50 on human PD-1/PD-L1 binding was 2.7 nM.

Take `COc1nc(-c2cccc(-c3cccc(NC(=O)c4nc5c(n4C)CCN(C)C5)c3Cl)c2Cl)ccc1CN1CCN(C(=O)C(F)(F)F)CC1` [Embodiment 202, N-(2,2′-Dichloro-3′-(6-methoxy-5-((4-(2,2,2-trifluoroacetyl)piperazin-1-yl)methyl)pyridin-2-yl)-[1,1′-biphenyl]-3-yl)-1,5-dimethyl-4,5,6,7-tetrahydro-1H-imidazo[4,5-c]pyridine-2-carboxamide]: the Emax in assay [1] was 89%.

Regarding `COc1nc(-c2cccc(-c3cccc(NC(=O)c4nc5c(n4C)CCN(C)C5)c3Cl)c2Cl)ccc1CN1CCN(S(C)(=O)=O)CC1` [Embodiment 204, N-(2,2′-Dichloro-3′-(6-methoxy-5-((4-(methylsulfonyl)piperazin-1-yl)methyl)pyridin-2-yl)-[1,1′-biphenyl]-3-yl)-1,5-dimethyl-4,5,6,7-tetrahydro-1H-imidazo[4,5-c]pyridine-2-carboxamide], the Emax in assay [1] was 89%.
